Structures are written as SMILES.

This passage reports Ki results from publication PMC7382296, “Discovery of potent thrombin inhibitors from a protease-focused DNA-encoded chemical library” (Proceedings of the National Academy of Sciences of the …, 2020).

The target of the assay is T1, thrombin (Homo sapiens, UniProt P00734).
T1 construct: gene F2
Kind of assay: thrombin inhibition dose-response, apparent Ki. In kind it is biochemical.

For the compound `CNC(=O)[C@@H]1CN(C(=O)[C@H](Cc2ccccc2CNC(=N)N)NC(=O)N(C)C2CCOc3ccccc32)C[C@H]1c1ccc(OC)cc1` (stereo partly shown) [compound 5], the Ki was found to be 1 nM.
